According to patent publication US9126986B2, “Hetero-bicyclic derivatives as HCV inhibitors” (Janssen R&D Ireland, priority 2011, dated 2015):
Where two headings read alike, the source gives them in different places.

Columns and labels:
[1] = test system: HCV replicon type 1b in Huh-Luc cells; assay: HCV replicon assay, stable transfection (Huh-7 luc/neo, luciferase readout); assay type: cell-based, HCV type 1b; details: stably transfected Huh-Luc cells, genotype 1b, three days incubation, average where tested more than once, read-out: HCV-REP-HUH7LUC_EC50
Text: The compounds of formula (I) were examined for inhibitory activity in the HCV replicon. This cellular assay is based on a bicistronic expression construct, as described by Lohmann et al. (Science (1999) 285: 110-113; Journal of Virology (2003) 77: 3007-3019) with modifications described by Krieger et al. (Journal of Virology (2001) 75: 4614-4624), and Lohmann et al. (Journal of Virology (2003) 77: 3007-3019) for genotype 1b and by Yi et al. (Journal of Virology (2004) 78: 7904-7915) for genotype 1a, in a multi-target screening strategy.
The method was as follows. The assay utilized the stably transfected cell line Huh-7 luc/neo (hereafter referred to as Huh-Luc). This cell line harbors an RNA encoding a bicistronic expression construct comprising the wild type NS3-NS5B regions of HCV type 1b translated from an Internal Ribosome Entry Site (IRES) from encephalomyocarditis virus (EMCV), preceded by a reporter portion (FfL-luciferase), and a selectable marker portion (neoR, neomycine phosphotransferase). The construct is flanked by 5′ and 3′ NTRs (non-translated regions) from HCV type 1b. Continued culture of the replicon cells in the presence of G418 (neoR) is dependent on the replication of the HCV RNA. The stably transfected replicon cells that replicate HCV RNA autonomously and to high levels, encoding inter alia luciferase, were used for screening the antiviral compounds.
The replicon cells were plated in 384 well plates in the presence of the test and control compounds which were added in various concentrations. Following an incubation of three days, HCV replication was measured by assaying luciferase activity (using standard luciferase assay substrates and reagents and a Perkin Elmer ViewLux™ ultraHTS microplate imager). Replicon cells in the control cultures have high luciferase expression in the absence of any inhibitor. The inhibitory activity of the compound was monitored on the Huh-Luc cells, enabling a dose-response curve for each test compound. EC50 values were then calculated, which represent the amount of compound required to decrease the level of detected luciferase activity by 50%, or more specifically, to reduce the ability of the genetically linked HCV replicon RNA to replicate.
Where a compound of formula (I) was tested more than once in the replicon assay, the average of all test results is given in this Table 1.

[2] = test system: HCV subgenomic replicon genotype 1b Con1 in Huh-7 lunet cells; assay: HCV replicon assay, transient transfection, genotype 1b Con1; assay type: cell-based, HCV genotype 1b Con1; details: transiently transfected Huh-7 lunet, genotype 1b Con1, two days incubation, luciferase
Text: (§1) In a transient set-up, a Huh-7 lunet hepatoma cell line was transiently transfected with an autonomously replicating RNA encoding a bi-cistronic expression construct. This construct comprises a firefly luciferase reporter gene preceding the NS3-NS5B subgenomic region of HCV (genotype 1a H77 or 1b Con1). Translation of the HCV subgenomic region is mediated by an internal ribosome entry site of encephalomyocarditis virus. The construct is furthermore flanked by 5′ and 3′ untranslated regions of HCV (genotype 1a H77 or 1b Con 1, respectively), which allow for replication of the RNA.
(§2) Cells were plated in 384 well plates in the presence of test and control compounds, which were added in various concentrations. Following an incubation of two days, replication of the HCV subgenomic replicon RNA was measured by assaying luciferase activity (using standard luciferase assay substrates and reagents and a Perkin Elmer ViewLux™ ultraHTS microplate imager). HCV subgenomic replicon containing cells in the control cultures have high luciferase expression in the absence of any inhibitor. The inhibitory activity of the compound was monitored, enabling a dose-response curve for each test compound. EC50 values were then calculated, which represent the amount of compound required to decrease the level of detected luciferase activity by 50%, or more specifically, to reduce the ability of the genetically linked HCV subgenomic RNA to replicate.

[3] = test system: HCV subgenomic replicon genotype 1a H77 in Huh-7 lunet cells; assay: HCV replicon assay, transient transfection, genotype 1a H77; assay type: cell-based, HCV genotype 1a H77; details: transiently transfected Huh-7 lunet, genotype 1a H77, two days incubation, luciferase
Text: as §1, §2

[4] = Counterscreen MT4-LTR-Luc; assay type: cell-based; details: human; MT4 T-cell line with long terminal repeat-Luc reporter
Text: (§3) Counterscreen cell lines included a Huh-7 hepatoma cell line containing a human cytomegalovirus major immediate-early promoter-Luc construct (Huh7-CMV-Luc) and an MT4 T-cell line containing a long terminal repeat-Luc reporter (MT4-LTR-Luc).

[5] = Counterscreen Huh7-CMV-Luc; assay type: cell-based; details: Huh-7 hepatoma cell line with human CMV major immediate-early promoter-Luc construct
Text: as §3

[6] = test system: MT4-LTR-Luc cells; assay: Counterscreen MT4-LTR-Luc; assay type: cell-based; details: MT4 T-cell line with long terminal repeat-Luc reporter
Text: as §3

Compound | EC50 [1] | EC50 [2] | EC50 [3] | CC50 [4] | CC50 [5] | CC50 [6] | EC50 ([1]; Hepatitis C virus, Huh-7, 72 h) | EC50 ([2]; Hepatitis C virus, Huh-7, 48 h) | EC50 ([3]; Hepatitis C virus, Huh-7, 48 h)
COC(=O)N[C@H](C(=O)N1CCCC1c1cc(=O)c2ccc(-c3ccc(-c4ccc(-c5cnc([C@@H]6CCCN6C(=O)[C@@H](NC(=O)OC)C(C)C)[nH]5)cc4)cc3)cc2[nH]1)C(C)C (single isomer, unassigned) [Compound 3a] | 0.021 nM | 0.025 nM | 0.008 nM | > 984 nM | > 984 nM |  |  |  | 
COC(=O)N[C@H](C(=O)N1CCCC1c1cc(=O)c2ccc(-c3ccc(-c4ccc(-c5cnc([C@@H]6CCCN6C(=O)[C@@H](NC(=O)OC)C(C)C)[nH]5)cc4)cc3)cc2[nH]1)C(C)C (single isomer, unassigned) [Compound 3b] | 1.13 nM | 1.36 nM | 0.941 nM |  |  | > 984 nM |  |  | 
COC(=O)N[C@H](C(=O)N1CCCC1c1cc(=O)c2ccc(-c3ccc4c(c3)C(F)(F)c3cc(-c5c[nH]c([C@@H]6CCCN6C(=O)[C@@H](NC(=O)OC)C(C)C)n5)ccc3-4)cc2[nH]1)C(C)C (single isomer, unassigned) [Compound 5a] | 0.014 nM | 0.013 nM | 0.007 nM | > 984 nM | > 984 nM |  |  |  | 
COC(=O)N[C@H](C(=O)N1CCCC1c1cc(=O)c2ccc(-c3ccc4c(c3)C(F)(F)c3cc(-c5c[nH]c([C@@H]6CCCN6C(=O)[C@@H](NC(=O)OC)C(C)C)n5)ccc3-4)cc2[nH]1)C(C)C (single isomer, unassigned) [Compound 5b] | 0.228 nM | 0.63 nM | 0.21 nM |  |  | > 984 nM |  |  | 
COC(=O)N[C@H](C(=O)N1CCCC1c1[nH]c2cc(-c3ccc(-c4ccc(-c5cnc([C@@H]6CCCN6C(=O)[C@@H](NC(=O)OC)C(C)C)[nH]5)cc4)cc3)ccc2c(=O)c1F)C(C)C (single isomer, unassigned) [Compound 18a] | 0.03 nM | 0.037 nM | 0.011 nM | > 984 nM | > 984 nM |  |  |  | 
COC(=O)N[C@H](C(=O)N1CCCC1c1[nH]c2cc(-c3ccc(-c4ccc(-c5cnc([C@@H]6CCCN6C(=O)[C@@H](NC(=O)OC)C(C)C)[nH]5)cc4)cc3)ccc2c(=O)c1F)C(C)C (single isomer, unassigned) [Compound 18b] | 4.4 nM | 6.7 nM | 65.6 nM |  |  | > 984 nM |  |  | 
COC(=O)N[C@H](C(=O)N1CCC[C@H]1c1ncc(-c2ccc3c(c2)C(F)(F)c2cc(-c4ccc5c(=O)cc([C@@H]6C[C@@H]7CCCC[C@@H]7N6C(=O)[C@@H](NC(=O)OC)C(C)C)[nH]c5c4)ccc2-3)[nH]1)C(C)C [Compound 6] |  |  |  | > 984 nM | > 984 nM |  | 0.012 nM | 0.013 nM | 0.005 nM
COC(=O)N[C@H](C(=O)N1CCC[C@H]1c1cc(=O)c2cc(F)c(-c3ccc(-c4ccc(-c5cnc([C@@H]6CCCN6C(=O)[C@@H](NC(=O)OC)C(C)C)[nH]5)cc4)cc3)cc2[nH]1)C(C)C [Compound 7] |  |  |  | > 984 nM | > 984 nM |  | 0.008 nM | 0.021 nM | 0.042 nM
COC(=O)N[C@H](C(=O)N1CCC[C@H]1c1ncc(-c2ccc3c(c2)C(F)(F)c2cc(-c4ccc5c(=O)cc([C@@H]6[C@H]7CC[C@H](C7)N6C(=O)[C@@H](NC(=O)OC)C(C)C)[nH]c5c4)ccc2-3)[nH]1)C(C)C [Compound 8] |  |  |  | 770 nM | > 984 nM |  | 0.004 nM | 0.005 nM | 0.003 nM
COC(=O)N[C@H](C(=O)N1CCC[C@H]1c1nc(-c2ccc(-c3ccc(-c4ccc5c(=O)nc([C@@H]6CCCN6C(=O)[C@@H](NC(=O)OC)C(C)C)[nH]c5c4)cc3)cc2)c[nH]1)C(C)C [Compound 11] |  |  |  | > 984 nM | > 984 nM |  | 0.149 nM | 0.025 nM | 1.47 nM
COC(=O)N[C@H](C(=O)N1CCC[C@H]1c1ncc(-c2ccc3c(c2)C(F)(F)c2cc(-c4ccc5c(=O)[nH]c([C@@H]6CCCN6C(=O)[C@@H](NC(=O)OC)C(C)C)nc5c4)ccc2-3)[nH]1)C(C)C [Compound 12] |  |  |  |  | > 984 nM |  | 0.007 nM | 0.005 nM | 0.047 nM
COC(=O)N[C@H](C(=O)N1CCC[C@H]1C1=NS(=O)(=O)c2ccc(-c3ccc4c(c3)C(F)(F)c3cc(-c5cnc([C@@H]6CCCN6C(=O)[C@@H](NC(=O)OC)C(C)C)[nH]5)ccc3-4)cc2N1)C(C)C [Compound 14] |  |  |  | > 984 nM | > 984 nM |  | 0.008 nM | 0.017 nM | 0.005 nM
COC(=O)N[C@H](C(=O)N1CCC[C@H]1C1=NC2(COC2)c2ccc(-c3ccc4c(c3)C(F)(F)c3cc(-c5cnc([C@@H]6CCCN6C(=O)[C@@H](NC(=O)OC)C(C)C)[nH]5)ccc3-4)cc2N1)C(C)C [Compound 16] |  |  |  | > 984 nM | > 984 nM |  | 0.011 nM | 0.033 nM | 0.04 nM
COC(=O)N[C@H](C(=O)N1CCC[C@H]1C1=NC2(COC2)c2ccc(-c3ccc(-c4ccc(-c5cnc([C@@H]6CCCN6C(=O)[C@@H](NC(=O)OC)C(C)C)[nH]5)cc4)cc3)cc2N1)C(C)C [Compound 20] |  |  |  | > 984 nM | > 984 nM |  | 0.023 nM | < 0.019 nM | 0.46 nM
COC(=O)N[C@H](C(=O)N1CCC[C@H]1C1=NS(=O)(=O)c2ccc(-c3ccc(-c4ccc(-c5c[nH]c([C@@H]6CCCN6C(=O)[C@@H](NC(=O)OC)C(C)C)n5)cc4)cc3)cc2N1)C(C)C [Compound 22] |  |  |  | > 984 nM | > 984 nM |  | 0.012 nM | 0.012 nM | 0.054 nM
COC(=O)N[C@H](C(=O)N1CC2(C[C@H]1c1ncc(-c3ccc4c(c3)C(F)(F)c3cc(-c5ccc6c(=O)[nH]c([C@@H]7C[C@@H]8CCCC[C@@H]8N7C(=O)[C@@H](NC(=O)OC)C(C)C)nc6c5)ccc3-4)[nH]1)OCCO2)C(C)C [Compound 23] |  |  |  | > 984 nM | > 984 nM |  | 0.006 nM | 0.005 nM | 0.005 nM
